Target: T1, recombinant human 17β-hydroxysteroid dehydrogenase type 1 (Homo sapiens, UniProt P14061)
T1 construct: made in house; host or cells: Sf9 insect cells (baculovirus, Bac to Bac Expression System)
T1 sequence (P14061 1-328): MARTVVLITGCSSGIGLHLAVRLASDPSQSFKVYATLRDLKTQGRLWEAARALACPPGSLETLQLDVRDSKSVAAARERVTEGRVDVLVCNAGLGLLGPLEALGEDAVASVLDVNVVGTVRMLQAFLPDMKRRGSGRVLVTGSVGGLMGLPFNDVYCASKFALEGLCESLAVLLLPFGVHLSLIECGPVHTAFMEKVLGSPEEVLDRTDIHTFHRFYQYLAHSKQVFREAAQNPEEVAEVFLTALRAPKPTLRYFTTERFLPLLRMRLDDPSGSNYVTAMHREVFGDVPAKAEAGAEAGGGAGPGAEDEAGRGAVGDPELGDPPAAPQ
Experiment: Inhibition of recombinant human 17β-hydroxysteroid dehydrogenase type 1 (conversion of 3H-estrone to estradiol, HPLC)
Assay type: biochemical
Details: 30 nM 3H-estrone, 1 mM NADPH, 30 min at RT; for inhibition at 0.1 µM: inhibitor 100 nM, read-out: Inhibition of rec. 17β-HSD1 (% inhibition), 100 nM; for inhibition at 1 µM: inhibitor 1 μm, read-out: Inhibition of rec. 17β-HSD1 (% inhibition), 1 μm
Method: 1. Inhibition of the 17β-hydroxysteroid Dehydrogenase Type 1 Enzyme
17β-HSD1 Purification: Recombinant baculovirus was generated by the “Bac to Bac Expression System” (Invitrogen). Recombinant bacmid was transfected to Sf9 insect cells using “Cellfectin Reagent” (Invitrogen). 60 h later cells were harvested; the microsomal fraction was isolated as described by Puranen et al. 1994. Aliquots were stored frozen until determination of enzymatic activity.
Assay—Inhibition of Recombinant Human 17β-hydroxysteroid Dehydrogenase Type 1:
Recombinant protein (0.1 μg/ml) was incubated in 20 mM KH2PO4 pH 7.4 with 30 nM 3H-estrone and 1 mM NADPH for 30 min at RT, in the presence of potential inhibitors at concentrations of 1 μM or 0.1 μM. Inhibitor stock solutions were prepared in DMSO. Final concentration of DMSO was adjusted to 1% in all samples. The enzyme reaction was stopped by addition of 10% trichloroacetic acid (final concentration). Samples were centrifuged in a microtiter plate at 4000 rpm for 10 min. Supernatants were applied to reverse phase HPLC on a Waters Symmetry C18 column, equipped with a Waters Sentry Guard column. Isocratic HPLC runs were performed at RT at a flow rate of 1 ml/min of acetonitrile:water 48:52 as running solvent. Radioactivity was monitored in the eluate by a Packard Flow Scintillation Analyzer. Total radioactivity for estrone and estradiol were determined in each sample and percent conversion of estrone to estradiol was calculated according to the following formula:
Percent inhibition was calculated as follows: % inhibition=100−% conversion

| SMILES | inhibition at 0.1 µM | inhibition at 1 µM |
| --- | --- | --- |
| COc1ccc2c(c1)CC[C@H]1[C@@H]3[C@H](CCCCC(=O)NCc4cccc(F)c4)CC(=O)[C@@]3(C)CC[C@H]21 [Example 342] | 40.4% | 89.2% |
| COc1ccc2c(c1)CC[C@H]1[C@@H]3[C@H](CCCCC(=O)NCc4ccc(Cl)cc4)CC(=O)[C@@]3(C)CC[C@H]21 [Example 343] | 47.1% | 86% |
| COc1ccc2c(c1)CC[C@H]1[C@@H]3[C@H](CCCCC(=O)N(C)Cc4ccccc4)CC(=O)[C@@]3(C)CC[C@H]21 [Example 344] | 39.8% | 88.9% |
| CCCCNC(=O)CCCC[C@@H]1CC(=O)[C@@]2(C)CC[C@@H]3c4ccc(OC)cc4CC[C@H]3[C@H]12 [Example 345] | 33% | 85.6% |
| COc1ccc2c(c1)CC[C@H]1[C@@H]3[C@H](CCCCC(=O)NCCc4cccs4)CC(=O)[C@@]3(C)CC[C@H]21 [Example 346] | 58.2% | 91.7% |
| COc1ccc2c(c1)CC[C@H]1[C@@H]3[C@H](CCCCC(=O)NCCc4c[nH]c5c(C)cccc45)CC(=O)[C@@]3(C)CC[C@H]21 [Example 347] | 38% | 77.2% |
| COc1ccc2c(c1)CC[C@H]1[C@@H]3[C@H](CCCCCC(=O)NC4CCCCC4)CC(=O)[C@@]3(C)CC[C@H]21 [Example 348] | 30.5% | 82.4% |
| COc1ccc2c(c1)CC[C@H]1[C@@H]3[C@H](CCCCCC(=O)NCc4ccco4)CC(=O)[C@@]3(C)CC[C@H]21 [Example 350] | 27.7% | 80.7% |
| COc1ccc2c(c1)CC[C@H]1[C@@H]3[C@H](CCCCCC(=O)NCc4ccc5c(c4)OCO5)CC(=O)[C@@]3(C)CC[C@H]21 [Example 353] | 46.3% | 89.5% |
| COc1ccc2c(c1)CC[C@H]1[C@@H]3[C@H](CCCCCC(=O)N4CCOCC4)CC(=O)[C@@]3(C)CC[C@H]21 [Example 354] | 28.7% | 80.3% |
| COc1ccc2c(c1)CC[C@H]1[C@@H]3[C@H](CCCCCC(=O)N4CCSCC4)CC(=O)[C@@]3(C)CC[C@H]21 [Example 355] | 34.4% | 85.1% |
| COc1ccc2c(c1)CC[C@H]1[C@@H]3[C@H](CCCCCC(=O)NCc4cccnc4)CC(=O)[C@@]3(C)CC[C@H]21 [Example 356] | 26.9% | 83.9% |
| COc1ccc2c(c1)CC[C@H]1[C@@H]3[C@H](CCCCCC(=O)NCc4ccncc4)CC(=O)[C@@]3(C)CC[C@H]21 [Example 357] | 31.1% | 85.2% |
| COc1ccc2c(c1)CC[C@H]1[C@@H]3[C@H](CCCCCC(=O)NCc4ccccc4)CC(=O)[C@@]3(C)CC[C@H]21 [Example 359] | 40.5% | 88.3% |
| COc1ccc2c(c1)CC[C@H]1[C@@H]3[C@H](CCCCCC(=O)NCc4ccccc4OC)CC(=O)[C@@]3(C)CC[C@H]21 [Example 360] | 41.5% | 85.6% |
| COc1ccc2c(c1)CC[C@H]1[C@@H]3[C@H](CCCCCC(=O)NCc4cccc(F)c4)CC(=O)[C@@]3(C)CC[C@H]21 [Example 361] | 35.8% | 84.2% |
| COc1ccc2c(c1)CC[C@H]1[C@@H]3[C@H](CCCCCC(=O)NCc4ccc(Cl)cc4)CC(=O)[C@@]3(C)CC[C@H]21 [Example 362] | 35.1% | 75.1% |
| COc1ccc2c(c1)CC[C@H]1[C@@H]3[C@H](CCCCCC(=O)N(C)Cc4ccccc4)CC(=O)[C@@]3(C)CC[C@H]21 [Example 364] | 48.7% | 90.8% |
| CCCCNC(=O)CCCCC[C@@H]1CC(=O)[C@@]2(C)CC[C@@H]3c4ccc(OC)cc4CC[C@H]3[C@H]12 [Example 365] | 33.7% | 86.4% |

| SMILES | inhibition at 0.1 µM | inhibition at 1 µM |
| --- | --- | --- |
| COc1ccc2c(c1)CC[C@H]1[C@@H]3[C@H](CCCCCC(=O)NCCc4cccs4)CC(=O)[C@@]3(C)CC[C@H]21 [Example 366] | 56.3% | 94.4% |
| COc1ccc2c(c1)CC[C@H]1[C@@H]3[C@H](CCCCCC(=O)NCCc4c[nH]c5c(C)cccc45)CC(=O)[C@@]3(C)CC[C@H]21 [Example 367] | 51.5% | 73.5% |
| CCOC(=O)CNNC(=O)CCCCC[C@@H]1CC(=O)[C@@]2(C)CC[C@@H]3c4ccc(OC)cc4CC[C@H]3[C@H]12 [Example 414] | 44.9% | 49.9% |
| COc1cccc(NC(=O)NCCC[C@@H]2CC(=O)[C@@]3(C)CC[C@@H]4c5ccc(OC)cc5CC[C@H]4[C@H]23)c1 [Example 443] | 39.8% | 84.1% |
| COc1ccc(NC(=O)NCCC[C@@H]2CC(=O)[C@@]3(C)CC[C@@H]4c5ccc(OC)cc5CC[C@H]4[C@H]23)cc1 [Example 446] | 72.4% | 94.2% |
| COc1ccc2c(c1)CC[C@H]1[C@@H]3[C@H](CCCNC(=O)NC(C)C)CC(=O)[C@@]3(C)CC[C@H]21 [Example 449] | 26% | 82.7% |
| COc1ccc2c(c1)CC[C@H]1[C@@H]3[C@H](CCCNC(=O)NC4CCCCC4)CC(=O)[C@@]3(C)CC[C@H]21 [Example 450] | 34% | 80.7% |
| COc1ccc2c(c1)CC[C@H]1[C@@H]3[C@H](CCCNC(=O)Nc4cccc5ccccc45)CC(=O)[C@@]3(C)CC[C@H]21 [Example 451] | 32.3% | 74.6% |
| COc1ccc2c(c1)CC[C@H]1[C@@H]3[C@H](CCCNC(=O)NCc4ccccc4)CC(=O)[C@@]3(C)CC[C@H]21 [Example 452] | 38.6% | 82.9% |
| COc1ccc2c(c1)CC[C@H]1[C@@H]3[C@H](CCCNC(=O)Nc4ccc5ccccc5c4)CC(=O)[C@@]3(C)CC[C@H]21 [Example 460] | 50.1% | 77.2% |
| COc1ccc(NC(=O)NCCCC[C@@H]2CC(=O)[C@@]3(C)CC[C@@H]4c5ccc(OC)cc5CC[C@H]4[C@H]23)cc1 [Example 471] | 28.7% | 77% |
| COc1ccc2c(c1)CC[C@H]1[C@@H]3[C@H](CCCCNC(=O)NCc4ccccc4)CC(=O)[C@@]3(C)CC[C@H]21 [Example 477] | 31.7% | 79.5% |
| COc1ccc2c(c1)CC[C@H]1[C@@H]3[C@H](CCCCNC(=O)Nc4ccc(OC)c(OC)c4)CC(=O)[C@@]3(C)CC[C@H]21 [Example 488] | 60.3% | 91.6% |
| C[C@]12CC[C@@H]3c4ccc(O)cc4CC[C@H]3[C@@H]1[C@@H](CCCCNC(=O)NCC1CCCCC1)CC2=O [Example 491] | 56.9% | 83% |
| C[C@]12CC[C@@H]3c4ccc(O)cc4CC[C@H]3[C@@H]1[C@@H](CNS(=O)(=O)c1ccc3ccccc3c1)CC2=O [Example 661] | 40.1% | 82% |
| C[C@]12CC[C@@H]3c4ccc(O)cc4CC[C@H]3[C@@H]1[C@@H](CNS(=O)(=O)c1cccs1)CC2=O [Example 662] | 76.9% | 94.8% |
| C[C@]12CC[C@@H]3c4ccc(O)cc4CC[C@H]3[C@@H]1[C@@H](CNS(=O)(=O)c1ccccc1)CC2=O [Example 664] | 60.5% | 92.7% |
| C[C@]12CC[C@@H]3c4ccc(O)cc4CC[C@H]3[C@@H]1[C@@H](CNS(=O)(=O)c1ccc(F)cc1)CC2=O [Example 665] | 54.6% | 91.2% |
| C[C@]12CC[C@@H]3c4ccc(O)cc4CC[C@H]3[C@@H]1[C@@H](CNS(=O)(=O)c1ccc([N+](=O)[O-])cc1)CC2=O [Example 667] | 30.3% | 72.3% |

From US8088758B2, “17β-hydroxysteroid dehydrogenase type I inhibitors” (Abbott Products GmbH, priority 2003, dated 2012)
